Assay results taken from patent publication US20160317418A1, “METHOD OF IMPROVING THE APPEARANCE OF SKIN AND COMPOSITIONS THEREFOR” (The Procter & Gamble Company, priority 2015, published 2016).
“Also recorded” adds a separate entry of the source.

How the values were obtained:
[1] = tested on: HMGB1 protein released from keratinocytes; experiment: In Vitro UV Stress Test: HMGB1 released from UVB-exposed keratinocytes (ELISA); assay type: cell-based, human; conditions: for HMGB1 Released: 0.001 w/v % after 15 mJ/cm^2 UVB, 24 hours, UV untreated 19.4, no UV 10.5; for effect on amount of HMGB1 protein released by keratinocytes exposed to UVB (in words): compared to the untreated UVB exposed cells
Procedure: This example compares the ability of nicotinamide riboside and niacinamide to reduce the amount of HMGB1 protein released from keratinocytes subjected to stress from ultraviolet (“UV”) radiation. Human neonatal keratinocytes (available from Thermo) were placed in each well of four 12-well plates. Each well also contained 2 ml of EPILIFE brand keratinocyte medium. The plates were incubated at 37° C. in a CO2 incubator until cell confluency reached 70%. At this point, the cells, except for the negative control, were exposed to 15 mJ/cm^2 UVB (i.e., UV radiation with a wavelength of from 315-280 nm) in a BIO-SUN brand UV irradiating system (available from Vilber Lourmat, France). After UVB exposure, the keratinocyte medium in each well was replaced with an appropriate medium (i.e., niacinamide medium, nicotinamide riboside medium or a control medium) to produce the test plates. The test plates were incubated for 24 hours at 37° C. in a CO2 incubator, after which the medium in each cell was removed and the HMGB1 level measured using a conventional HMGB1 ELISA kit (REF # ST51011, available from IBL International, Canada) according to the manufacturer's instructions. The test media were made by adding either niacinamide or nicotinamide riboside to EPILIFE brand keratinocyte medium to produce a 0.001 w/v % solution. The control medium was unmodified keratinocyte medium.

[2] = tested on: human neonatal keratinocytes; experiment: Melanosome Uptake Assay (CFDA-labeled melanosomes, flow cytometry); assay type: cell-based; conditions: for % Uptake: 0.0025 w/v % in keratinocyte medium, fraction of keratinocytes with detectable CFDA, vehicle control 36; for Rate of Melanosome Uptake Versus Control: 0.0025 w/v %, vehicle control = 100%
Procedure: Melanosome uptake was determined as follows. Carboxyfluorescein diacetate (“CFDA”) (available from Sigma, St. Louis, Mo.) labeled melanosomes were prepared by incubating CFDA dye in SKMEL-188 culture cells (available from Sloan Kettering Institute) for 2 days at 37° C. in a THERMO SCIENTIFIC FORMA brand CO2 incubator (available from Fisher Scientific, Waltham, Mass.). On day 3 of the test, melanosomes were isolated from SKMEL-188 cells by step density centrifugation with sucrose solutions layered with different densities, which is well known in the art. Melanosomes were taken from the 1.6 M-2.0 M sucrose layers. The isolated melanosomes were placed in each well of a 6-well plate along with human neonatal keratinocytes (available from Thermo) (approximately 50,000 keratinocytes/well). 2 ml of the appropriate medium (i.e., the test composition, the positive control or the vehicle control) was added to each of the wells to produce […] (i.e., 3 replicates of each of three composition tested). The test composition was made by adding nicotinamide riboside chloride powder (available from Chromadex, Irvine, Calif.) to EPILIFE brand keratinocyte medium to produce a solution of 0.0025 w/v % nicotinamide riboside. The positive control was made by adding niacinamide to EPILIFE brand keratinocyte medium to produce a solution of 0.0025 w/v % niacinamide. Unmodified keratinocyte medium was used as a vehicle control.
The resulting test plates were incubated for two days in EPILIFE brand keratinocyte medium. On day 6 of the test, the keratinocytes were detached from the plates using trypsin and fluorescent-label counted by flow cytometry using an LSRFortessa brand flow cytometer (available from Becton Dickinson, NJ). The percentage of cells that had fluorescence (from CFDA label) was used as a metric to determine melanosome uptake. Keratinocytes containing detectable levels of CFDA were counted as a fraction of all keratinocytes passing through the flow cytometer (indicated as % uptake in Table 2). A higher percentage corresponds to a higher level of melanosome uptake into the keratinocytes.

NC(=O)c1cccnc1 [niacinamide, reference compound]
HMGB1 Released [1]: 17.8 pg/mL | effect on amount of HMGB1 protein released by keratinocytes exposed to UVB (in words) [1]: no significant effect | % Uptake [2]: 26% | Rate of Melanosome Uptake Versus Control [2]: 72% | effect on uptake of melanosomes from melanocytes into keratinocytes (in words) ([2]; compared to the vehicle control): inhibit the rate of melanosome uptake

Nicotinamide riboside [NR]
HMGB1 Released [1]: 11.5 pg/mL | effect on amount of HMGB1 protein released by keratinocytes exposed to UVB (in words) [1]: reduces the amount of HMGB1 protein released from keratinocytes; also recorded: released less HMGB1 protein | % Uptake [2]: 67% | Rate of Melanosome Uptake Versus Control [2]: 186%
